In US20110318271A1, “Arginase Inhibitors for the Treatment of Depression” (UNIVERSITY OF TARTU, priority 2008, published 2011):

Test system: Male C57BL/6/Bkl mice
Assay: Forced swimming test in mice
Format: in vivo
Experimental: Male C57BL/6/Bkl mice (Scanbur BK AB, Sweden) weighing 20-25 g were used. Mice were kept 10 per cage (21×37×15 cm) in an animal house at 20° C. in a 12 h light/dark cycle (light on at 7.00 a.m.). Tap water and food pellets were available ad libitum. The animals were kept for at least two weeks in the animal colony before entering experiments. The measurement of locomotor activity, and forced swimming test were carried out consecutively 45 and 55 min after treatment with study compounds, according to Volke V, Wegener G, Bourin […]. […] Behavioural Brain Research 2003; 140: 141-147. In a separate experiment arginase product L-ornithine or saline was injected 15 min prior to L-norvaline. The Forced Swimming test was performed as described by Porsolt et al Porsolt R D, Bertin A, Jalfre M. Behavioral despair in mice: a primary screening test for antidepressants. Arch Int Pharmacodyn Ther 1977; 229: 327-336. A glass cylinder with a diameter of 12 cm was filled with 8 cm water at 25° C. An animal was put into the water and its behaviour was videotaped during 6 min. An observer blind to treatment protocol counted the immobility time during the last 4 min of the 6 min test.

[1] = Example 2, separate experiment (FIG. 2), 500 mg/kg each, L-ornithine or saline injected 15 min prior to L-norvaline, saline 199 sec

Row | Compound | immobility time (20 mg/kg i.p., 55 min after treatment, last 4 min of 6 min test, control 220 sec (FIG. 1)) [s] | immobility time (100 mg/kg i.p., 55 min after treatment, last 4 min of 6 min test, control 220 sec (FIG. 1)) [s] | immobility time (500 mg/kg i.p., 55 min after treatment, last 4 min of 6 min test, control 220 sec (FIG. 1)) [s] | immobility time [1] [s] | immobility time (400 mg/kg i.p., separate experiment, control 219 sec) [s] | effect on immobility time (lower doses 10-100 mg/kg i.p.)
1 | CCC[C@H](N)C(=O)O [L-norvaline] | 146 | 107 | 96 | 127 | – | –
2 | difluoromethylornithine [DFMO] | – | – | – | – | 191 | ineffective
3 | NCCC[C@H](N)C(=O)O [L-ornithine] | – | – | – | 214 | – | –
